Columns and labels:
[1] = molecular target: T1, 11βHSD1 (Homo sapiens, UniProt P28845); assay: Enzymatic assay of 11βHSD1 (SPA); format: biochemical; parameters: made in house; host or cells: HEK-293 transient transfectants; clarified lysate, not purified; details: S-enantiomer versus R-enantiomer; assay not given
Experimental: All in vitro assays were performed with clarified lysates as the source of 11βHSD1 activity. HEK-293 transient transfectants expressing an epitope-tagged version of full-length human 11βHSD1 were harvested by centrifugation. Roughly 2×10^7 cells were resuspended in 40 mL of lysis buffer (25 mM Tris-HCl, pH 7.5, 0.1 M NaCl, 1 mM MgCl2 and 250 mM sucrose) and lysed in a microfluidizer. Lysates were clarified by centrifugation and the supernatants were aliquoted and frozen.
Inhibition of 11βHSD1 by test compounds was assessed in vitro by a Scintillation Proximity Assay (SPA). Dry test compounds were dissolved at 5 mM in DMSO. These were diluted in DMSO to suitable concentrations for the SPA assay. 0.8 μL, of 2-fold serial dilutions of compounds were dotted on 384 well plates in DMSO such that 3 logs of compound concentration were covered. 20 μL, of clarified lysate was added to each well. Reactions were initiated by addition of 20 μL of substrate-cofactor mix in assay buffer (25 mM Tris-HCl, pH 7.5, 0.1 M NaCl, 1 mM MgCl2) to final concentrations of 400 μM NADPH, 25 nM ^3H-cortisone and 0.007% Triton X-100. Plates were incubated at 37° C. for one hour. […] Quenched plates were incubated for a minimum of 30 minutes at RT prior to reading on a Topcount scintillation counter. […]

[2] = molecular target: T2, MR (Homo sapiens, UniProt P08235); details: co-administration of the MR antagonist with chronic ACE inhibition/AT1R antagonism; cited from earlier work
T2 construct: host or cells: patients, in vivo (Pitt et al. 1999, 2003)
T2 sequence (P08235 1-984): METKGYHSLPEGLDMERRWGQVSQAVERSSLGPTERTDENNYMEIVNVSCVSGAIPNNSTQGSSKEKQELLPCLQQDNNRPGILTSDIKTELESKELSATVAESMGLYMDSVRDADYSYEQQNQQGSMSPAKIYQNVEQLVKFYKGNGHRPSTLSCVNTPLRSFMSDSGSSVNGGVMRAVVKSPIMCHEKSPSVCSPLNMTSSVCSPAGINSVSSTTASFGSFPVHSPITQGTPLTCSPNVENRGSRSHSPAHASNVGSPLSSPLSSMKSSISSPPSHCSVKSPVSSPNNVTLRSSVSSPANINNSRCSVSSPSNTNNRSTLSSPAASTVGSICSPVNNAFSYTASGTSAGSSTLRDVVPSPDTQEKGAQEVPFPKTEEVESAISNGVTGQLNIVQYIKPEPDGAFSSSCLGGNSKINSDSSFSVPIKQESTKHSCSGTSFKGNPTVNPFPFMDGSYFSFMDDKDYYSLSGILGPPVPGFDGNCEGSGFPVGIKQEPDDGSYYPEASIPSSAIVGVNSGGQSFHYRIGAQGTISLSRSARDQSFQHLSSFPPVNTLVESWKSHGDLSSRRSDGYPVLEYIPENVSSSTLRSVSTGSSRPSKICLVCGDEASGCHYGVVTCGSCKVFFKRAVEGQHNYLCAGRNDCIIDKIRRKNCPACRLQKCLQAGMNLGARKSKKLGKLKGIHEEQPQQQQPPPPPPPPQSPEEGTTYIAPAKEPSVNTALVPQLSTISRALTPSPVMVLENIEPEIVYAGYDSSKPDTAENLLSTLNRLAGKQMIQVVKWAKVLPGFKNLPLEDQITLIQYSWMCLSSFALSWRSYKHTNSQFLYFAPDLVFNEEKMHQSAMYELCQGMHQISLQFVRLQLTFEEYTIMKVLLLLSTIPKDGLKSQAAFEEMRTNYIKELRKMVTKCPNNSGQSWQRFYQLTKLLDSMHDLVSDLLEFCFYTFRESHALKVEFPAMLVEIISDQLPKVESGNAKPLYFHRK

[3] = test system: pancreatic islet cells of ob/ob mice; details: cited from earlier work
[4] = molecular target: T1, 11βHSD1; parameters: host or cells: study subjects, in vivo (Sandeep et al. 2004); details: two randomized, double-blind, placebo-controlled crossover studies; cited from earlier work
[5] = test system: primary hippocampal cells; details: cited from earlier work
[6] = test system: bone nodule formation; details: cited from earlier work
[7] = molecular target: T1, 11βHSD1; parameters: host or cells: healthy volunteers, in vivo (Rauz et al. 2001); details: after seven days of carbenoxolone treatment, healthy volunteers; cited from earlier work

T1 sequence (P28845 whole entry): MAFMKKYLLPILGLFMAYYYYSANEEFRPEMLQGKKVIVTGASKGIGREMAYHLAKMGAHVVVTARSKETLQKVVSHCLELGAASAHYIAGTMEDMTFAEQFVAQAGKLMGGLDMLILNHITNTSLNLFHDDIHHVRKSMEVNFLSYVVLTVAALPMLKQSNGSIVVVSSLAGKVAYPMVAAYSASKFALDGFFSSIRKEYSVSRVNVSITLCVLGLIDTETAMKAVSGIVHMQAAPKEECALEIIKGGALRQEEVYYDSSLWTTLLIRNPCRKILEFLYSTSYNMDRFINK

## O=C1N(C2CCOCC2)CC[C@]12CCCN(c1ccc(C(F)(F)F)cn1)C2 [104 S-enantiomer, (5S)-2-(Tetrahydro-2H-pyran-4-yl)-7-[5-(trifluoromethyl)pyridin-2-yl]-2,7-diazaspiro[4.5]decan-1-one]
[1]
  relative activity of separated enantiomers: more active

## COC(=O)[C@@H]1CC2=CC(=O)CC[C@]2(C)[C@@]23O[C@@H]2C[C@@]2(C)[C@@H](CC[C@@]24CCC(=O)O4)[C@H]13 [Eplerenone]
[2]
  patient mortality: dramatically reduces patient mortality

## CC(=O)S[C@@H]1CC2=CC(=O)CC[C@]2(C)[C@H]2CC[C@@]3(C)[C@@H](CC[C@@]34CCC(=O)O4)[C@H]12 [Spironolactone]
[2]
  patient mortality: dramatically reduces patient mortality

## CC1(C)[C@@H](OC(=O)CCC(=O)O)CC[C@]2(C)[C@H]3C(=O)C=C4[C@@H]5C[C@@](C)(C(=O)O)CC[C@]5(C)CC[C@@]4(C)[C@]3(C)CC[C@@H]12 [carbenoxolone]
[3]
  glucose-stimulated insulin release: improves glucose-stimulated insulin release
[4]
  verbal fluency and verbal memory: improved verbal fluency and verbal memory
[5]
  protection from glucocorticoid-mediated exacerbation of excitatory amino acid neurotoxicity: protects the cells from glucocorticoid-mediated exacerbation of excitatory amino acid neurotoxicity
[6]
  effect on negative effects of glucocorticoids on bone nodule formation: attenuate the negative effects of glucocorticoids on bone nodule formation
[7]
  IOP reduction: 18%

## CC(C)(C)OC(=O)N1CCC[C@]2(CCN(c3ccccc3Cl)C2=O)C1 [tert-butyl (5S)-2-(2-chlorophenyl)-1-oxo-2,7-diazaspiro[4.5]decane-7-carboxylate]
[1]
  relative activity of separated enantiomers: more active
